Our source for the IC50 values is PubChem BioAssay AID588780 (Sanford-Burnham Center for Chemical Genomics, 2011).

Activity calls are given as the source filed them.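 The calls were made as follows: active = compounds whose fitted half-maximal concentration in the cell-protection dose series is at or below a set limit; inactive = the rest.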 Bounds are passed on as bounds.

This assay deals with H9c2 cardiomyocytes, 2-deoxyglucose stress, ATP luminescence, 2 h. Kind of assay: protection of cardiomyocytes from 2-deoxyglucose injury, dose response, cell-based, 2-deoxyglucose stress, uHTS hits (AID 588780).
As usually defined, the IC50 is the concentration that inhibits the measured activity by half. Consider `CCC(=O)N1CCN(c2ccc(NC(=O)c3cc4ccccc4o3)cc2Cl)CC1`, for which the IC50 was > 79 µM (inactive). Next, `COC(=O)c1ccc(Cn2c(C)c(C(=O)NCc3cccs3)sc2=O)o1`: > 79 µM (inactive); `COc1cc(-c2cc(NC=O)c3ncc(-c4ccccc4)n3c2)cc(OC)c1OC`: > 79 µM (inactive); `O=C(CCCn1c(SCC(=O)c2ccc(O)c(O)c2)nc2ccccc2c1=O)NCC1CCCO1` (configuration not stated): 38.7 µM (inactive). As for `CC1CN(c2nn3c(=O)c4ccccc4nc3c3ccccc23)CC(C)O1` (configuration not stated), the IC50 was > 79 µM (inactive). Next, `NC(=O)c1nsc(C(=O)N(c2ccccc2)C(C(=O)NCc2ccc(F)cc2)c2ccc(O)cc2)c1N` (configuration not stated): > 79 µM (inactive); `CCCCNC(=O)c1cn(-c2ccc(OCC)cc2)c(=O)c2cc(OC)c(OC)cc12`: 41.7 µM (inactive); `CCOc1ccccc1Nc1nnc(SCc2nnc(-c3cc(OC)c(OC)c(OC)c3)o2)s1`: 11.1 µM. On to `O=C(N/N=C/c1ccccn1)c1cc(-c2ccncc2)nc2ccccc12`, for which the IC50 is > 79 µM (inactive). Next, `O=c1oc2ccc3ccccc3c2cc1-c1nnc(-c2ccccc2)o1`: 17.3 µM; `CCc1nc2ccc(C(=O)Nc3cc(-c4ccccc4)ccc3OC)cn2c1N(C)Cc1nccs1`: 9.62 µM; `CC(OC(=O)Cc1n[nH]c(=O)c2ccccc12)C(=O)Nc1cccc([N+](=O)[O-])c1` (configuration not stated): 44.4 µM (inactive). As to `Cn1c(=O)n(CCc2ccccc2)c(=O)c2c1nc1n2CCCN1Cc1ccccc1`, the IC50 is 14.1 µM. To `CCCCc1nc2sc3c(c2c(=O)[nH]1)CCC3` belongs > 79 µM (inactive); to `Cn1c2ccc(F)cc2c2nnc(NN)nc21`, > 79 µM (inactive); to `Cc1cccc(N=Cc2cc(Br)cc(Cl)c2O)c1`, 39.6 µM (inactive). For the compound `O=C1c2ccccc2NC(c2ccc([N+](=O)[O-])cc2)N1O` (configuration not stated), the IC50 was > 79 µM (inactive).

On to `Clc1ccccc1-c1nc(N/N=C/c2cccnc2)c2ccccc2n1`, for which the IC50 is 8.37 µM.

Turning to `COc1ccc(Nc2nnc(-c3ccc(O)cc3)c3ccccc23)cc1C(N)=O`, the IC50 is > 79 µM (inactive). Consider `C/C(=N\NC(=O)c1nnn(-c2nonc2N)c1CSc1ccc(C)cc1)c1cccnc1`, for which the IC50 is > 79 µM (inactive). To `COc1ccc(-c2cc(C(=O)NNC(=O)c3csc(N4CCOCC4)n3)c3ccccc3n2)cc1` belongs > 79 µM (inactive).

Regarding `COc1cc(NC(=O)c2cccc3c(-c4cnn(C)c4)coc23)cc(OC)c1OC`, the IC50 was > 79 µM (inactive).

Turning to `COC(=O)Sc1nc(N2CCOCC2)c2c(c1C#N)CC(C)(C)OC2`, the IC50 is > 79 µM (inactive). On to `COc1ccc(-c2nc(NC(=O)c3ccc(OCC(=O)N4CCOCC4)c(OC)c3)sc2C)cc1`, for which the IC50 was > 79 µM (inactive). Regarding `NC(=O)c1cccc(Nc2nc(C(N)COCc3ccccc3)cs2)n1` (configuration not stated), the IC50 is > 79 µM (inactive). Next, `O=C(Nc1cccnc1)c1sc(Nc2ccccc2)nc1-c1ccccc1`: > 79 µM (inactive). Regarding `CC(C)n1nc(C(=O)OCC(=O)c2c[nH]c3ccccc23)c2ccccc2c1=O`, the IC50 was > 79 µM (inactive). Next, `Cn1c(=O)[nH]c(=O)c2c1nc(NCCc1ccccc1)n2CC(O)COc1ccccc1` (configuration not stated): > 79 µM (inactive). Take `O=[N+]([O-])c1ccc(-c2nc(Nc3ccc(O)cc3)c3ccccc3n2)cc1`: the IC50 is > 79 µM (inactive). Next, `c1coc(-c2nnc3sc(-c4cccs4)nn23)c1`: > 79 µM (inactive).

For `COc1ccc(C(=O)NN/C=C/C(=O)c2ccc(Br)cc2)cc1`, the IC50 was > 79 µM (inactive).

Take `Cc1cc(C)cc(OCC(=O)Nc2cccc(-c3nnc(-c4ccco4)o3)c2)c1`: the IC50 is > 79 µM (inactive). As to `COc1cc(/C=N/n2nnnc2Nc2ccccc2)cc(OC)c1OC`, the IC50 is 26.8 µM. Next, `O=S(=O)(c1ccccc1)N1CCN(c2nc(-c3cccnc3)nc3ccccc23)CC1`: 12.4 µM; `CC(OC(=O)Cn1[nH]c(=O)c2ccccc2c1=O)C(=O)Nc1ccccc1[N+](=O)[O-]` (configuration not stated): 27.9 µM; `COc1ccc(OC)c(Nc2nc(N)c([N+](=O)[O-])c(N3CCOCC3)n2)c1`: 20.9 µM.

Consider `Cc1cc(C)c(OCC(=O)Nc2nc(-c3ccccn3)cs2)c(C)c1`, for which the IC50 is > 79 µM (inactive). Next, `CCN(CC)C(=O)c1ccc2c3c(cccc13)C(=O)N(CCc1ccc(OC)c(OC)c1)C2=O`: 11.5 µM. Turning to `Nc1cc2[nH]c(=O)c3ccccc3c2cc1[N+](=O)[O-]`, the IC50 is 15.1 µM. Next, `O=C(CCc1nc2ccccc2c(=O)[nH]1)Nc1ccc(F)cc1`: 27.6 µM; `CC(C)(C)OC(=O)N1CCC[C@H]1c1nnc(SCC(=O)Nc2ccc(Br)cc2)o1`: 17.7 µM; `COc1ccc(OC)c(Nc2nc(N)nc(-c3cc4ccccc4o3)n2)c1`: > 79 µM (inactive). Turning to `CC(OC(=O)Cc1n[nH]c(=O)c2ccccc12)C(=O)Nc1ccc(Cl)cn1` (configuration not stated), the IC50 is > 79 µM (inactive). To `N/C(=N\NS(=O)(=O)c1ccccc1)c1ccccn1` belongs > 79 µM (inactive). Next, `CN(C)C(=O)CSc1nc2ccccc2c(=O)[nH]1`: > 79 µM (inactive); `Cc1cccc(NC(=O)c2oc3ccc(S(=O)(=O)N4CCOCC4)cc3c2C)c1C`: > 79 µM (inactive). To `Cc1ccccc1NP(=O)(Oc1ccccc1F)Oc1ccccc1F` belongs 24.8 µM; to `COc1ccccc1-c1cc2nc(-c3ccccc3)cc(N3CCN(C(=O)c4ccco4)CC3)n2n1`, > 79 µM (inactive). For the compound `CCOc1cccc(Nc2cc3n(c(=O)n2)CCc2cc(OC)c(OC)cc2-3)c1`, the IC50 was 29.9 µM.

Turning to `O=C(CN1C(=O)CCC1=O)Nc1nc(-c2ccccn2)cs1`, the IC50 was 43.2 µM (inactive). To `Cc1cc2ccccc2c(=O)[nH]1` belongs 7.23 µM; to `C[C@@H](NC(=O)c1nc[nH]c1C(=O)NCC(=O)OCc1ccccc1)c1ccccc1`, > 79 µM (inactive); to `COc1ccccc1CN(Cc1nc2ccccc2c(=O)[nH]1)S(=O)(=O)c1ccc2ccccc2c1`, > 79 µM (inactive).

On to `CC(C)(C)C(=O)Nc1ccc(C(=O)N/N=C/c2ccccc2OC(=O)c2ccccc2)cc1`, for which the IC50 is > 79 µM (inactive).

On to `CCOC(=O)c1cc2c(=O)n3cccc(C)c3nc2n(CCCOC)c1=NC(=O)c1cccnc1`, for which the IC50 is > 79 µM (inactive). Next, `Brc1ccc(-c2nn3c(-c4ccco4)nnc3s2)o1`: 20 µM; `CCCn1c(=O)c(C(=O)NCCc2ccc(Cl)cc2)c(O)c2ccccc21`: 11 µM; `O=C(CN1CCN(c2ccccn2)CC1)Nc1ccc([N+](=O)[O-])cc1C(=O)Nc1ccccc1F`: 11.3 µM. To `CC(OC(=O)Cc1n[nH]c(=O)c2ccccc12)C(=O)Nc1ccc(F)cc1` (configuration not stated) belongs > 79 µM (inactive); to `CCOC(=O)COc1cc(OCC(=O)OCC)c2c3c(c(=O)oc2c1)CCCC3`, 16.4 µM; to `CC(C)(C)NC(=O)c1cccc(NC(=O)c2ccc(NC(=O)c3ccco3)cc2)c1`, 15.4 µM. Next, `CC(C)(C)OC(=O)C[C@H]1C/C=C\C[C@H](CC(=O)N[C@H](CO)Cc2ccccc2)C(=O)N[C@H](Cc2ccccc2)COC1=O`: 20.5 µM.
